{"source": "ChEMBL document CHEMBL4610120", "about": "“New Broad-Spectrum Antibiotics Containing a Pyrrolobenzodiazepine Ring with Activity against Multidrug-Resistant Gram-Negative Bacteria” (J Med Chem, 2020)", "data": [{"test_system": "not listed separately", "experiment": "Selectivity ratio of cytotoxicity against human WI38 cells to MIC for Pseudomonas aeruginosa PAO1", "assay_type": "toxicity, cell-based", "settings": "not given", "values": [{"smiles": "COc1cc2c(cc1OCCCC(=O)Nc1cc(C(=O)Nc3ccc(-c4cc(C(=O)N5CCOCC5)n(C)c4)cc3)n(C)c1)N=C[C@@H]1CCCN1C2=O", "selectivity ratio": 10}]}, {"test_system": "Klebsiella pneumoniae", "experiment": "Antimicrobial activity against Klebsiella pneumoniae M6 by microdilution broth method", "assay_type": "functional", "settings": "not given", "units": {"MIC": "µg/mL"}, "values": [{"smiles": "COc1cc2c(cc1OCCCC(=O)Nc1cc(C(=O)Nc3ccc(-c4cc(C(=O)N5CCOCC5)n(C)c4)cc3)n(C)c1)N=C[C@@H]1CCCN1C2=O", "MIC": 2}]}, {"test_system": "Enterococcus faecalis", "experiment": "Antibacterial activity against vancomycin sensitive Enterococcus faecalis NCTC 775 by microdilution broth method", "assay_type": "functional", "settings": "not given", "units": {"MIC": "µg/mL"}, "values": [{"smiles": "COc1cc2c(cc1OCCCC(=O)Nc1cc(C(=O)Nc3ccc(-c4cc(C(=O)N5CCOCC5)n(C)c4)cc3)n(C)c1)N=C[C@@H]1CCCN1C2=O", "MIC": "≤ 0.125"}]}, {"test_system": "Enterococcus faecium", "experiment": "Antibacterial activity against vancomycin resistant Enterococcus faecium NCTC 12204 by microdilution broth method", "assay_type": "functional", "settings": "not given", "units": {"MIC": "µg/mL"}, "values": [{"smiles": "COc1cc2c(cc1OCCCC(=O)Nc1cc(C(=O)Nc3ccc(-c4cc(C(=O)N5CCOCC5)n(C)c4)cc3)n(C)c1)N=C[C@@H]1CCCN1C2=O", "MIC": "≤ 0.125"}]}, {"test_system": "Staphylococcus aureus", "experiment": "Antibacterial activity against methicillin resistant Staphylococcus aureus NCTC 13616 by microdilution broth method", "assay_type": "functional", "settings": "not given", "units": {"MIC": "µg/mL"}, "values": [{"smiles": "COc1cc2c(cc1OCCCC(=O)Nc1cc(C(=O)Nc3ccc(-c4cc(C(=O)N5CCOCC5)n(C)c4)cc3)n(C)c1)N=C[C@@H]1CCCN1C2=O", "MIC": "≤ 0.125"}]}, {"test_system": "DNA", "experiment": "Stabilization of 5'-FAM-TAT-ATA-TAG-ATA-TTT-TTT-TAT-CTA-TAT-ATA-3'-TAMRA DNA (unknown origin) assessed as reduction in change in melting temperature at 1:1 to 5:1 ligand to DNA ratio measured after 3 hrs by FRET-based assay relative to control", "assay_type": "ADME, nucleic-acid assay", "settings": "not given", "values": [{"smiles": "COc1cc2c(cc1OCCCC(=O)Nc1cc(C(=O)Nc3ccc(-c4cc(C(=O)N5CCOCC5)n(C)c4)cc3)n(C)c1)N=C[C@@H]1CCCN1C2=O", "fold change (FC)": "3 to 4"}]}, {"test_system": "Acinetobacter baumannii", "experiment": "Antimicrobial activity against Acinetobacter baumannii ATCC 17978 by microdilution broth method", "assay_type": "functional", "settings": "not given", "units": {"MIC": "µg/mL"}, "values": [{"smiles": "COc1cc2c(cc1OCCCC(=O)Nc1cc(C(=O)Nc3ccc(-c4cc(C(=O)N5CCOCC5)n(C)c4)cc3)n(C)c1)N=C[C@@H]1CCCN1C2=O", "MIC": 4}]}, {"test_system": "not listed separately", "experiment": "Selectivity ratio of cytotoxicity against human WI38 cells to MIC for multidrug-resistant Pseudomonas aeruginosa NCTC 13437", "assay_type": "toxicity, cell-based", "settings": "not given", "values": [{"smiles": "COc1cc2c(cc1OCCCC(=O)Nc1cc(C(=O)Nc3ccc(-c4cc(C(=O)N5CCOCC5)n(C)c4)cc3)n(C)c1)N=C[C@@H]1CCCN1C2=O", "selectivity ratio": 10}]}, {"test_system": "not listed separately", "experiment": "Selectivity ratio of cytotoxicity against human WI38 cells to MIC for multidrug-resistant Acinetobacter baumannii AYE", "assay_type": "toxicity, cell-based", "settings": "not given", "values": [{"smiles": "COc1cc2c(cc1OCCCC(=O)Nc1cc(C(=O)Nc3ccc(-c4cc(C(=O)N5CCOCC5)n(C)c4)cc3)n(C)c1)N=C[C@@H]1CCCN1C2=O", "selectivity ratio": 10}]}, {"test_system": "not listed separately", "experiment": "Selectivity ratio of cytotoxicity against human WI38 cells to MIC for vancomycin resistant Enterococcus faecalis NCTC 12201", "assay_type": "toxicity, cell-based", "settings": "not given", "values": [{"smiles": "COc1cc2c(cc1OCCCC(=O)Nc1cc(C(=O)Nc3ccc(-c4cc(C(=O)N5CCOCC5)n(C)c4)cc3)n(C)c1)N=C[C@@H]1CCCN1C2=O", "selectivity ratio": 100}]}, {"test_system": "not listed separately", "experiment": "Cytotoxicity against human WI38 cells assessed as cell viability at 20 uM measured after 24 hrs by MTT assay relative to control", "assay_type": "cell-based, WI-38", "settings": "read-out: Activity", "units": {"viability at 24 h, 20 µM": "%"}, "values": [{"smiles": "COc1cc2c(cc1OCCCC(=O)Nc1cc(C(=O)Nc3ccc(-c4cc(C(=O)N5CCOCC5)n(C)c4)cc3)n(C)c1)N=C[C@@H]1CCCN1C2=O", "viability at 24 h, 20 µM": "> 85"}]}, {"test_system": "not listed separately", "experiment": "Selectivity ratio of cytotoxicity against human WI38 cells to MIC for methicillin resistant Staphylococcus aureus NCTC 13277", "assay_type": "toxicity, cell-based", "settings": "not given", "values": [{"smiles": "COc1cc2c(cc1OCCCC(=O)Nc1cc(C(=O)Nc3ccc(-c4cc(C(=O)N5CCOCC5)n(C)c4)cc3)n(C)c1)N=C[C@@H]1CCCN1C2=O", "selectivity ratio": 100}]}, {"test_system": "not listed separately", "experiment": "Selectivity ratio of cytotoxicity against human WI38 cells to MIC for methicillin sensitive Staphylococcus aureus NCTC 6571", "assay_type": "toxicity, cell-based", "settings": "not given", "values": [{"smiles": "COc1cc2c(cc1OCCCC(=O)Nc1cc(C(=O)Nc3ccc(-c4cc(C(=O)N5CCOCC5)n(C)c4)cc3)n(C)c1)N=C[C@@H]1CCCN1C2=O", "selectivity ratio": 100}]}, {"test_system": "not listed separately", "experiment": "Selectivity ratio of cytotoxicity against human WI38 cells to MIC for vancomycin sensitive Enterococcus faecalis NCTC 775", "assay_type": "toxicity, cell-based", "settings": "not given", "values": [{"smiles": "COc1cc2c(cc1OCCCC(=O)Nc1cc(C(=O)Nc3ccc(-c4cc(C(=O)N5CCOCC5)n(C)c4)cc3)n(C)c1)N=C[C@@H]1CCCN1C2=O", "selectivity ratio": 100}]}, {"test_system": "Enterococcus faecalis", "experiment": "Antibacterial activity against vancomycin resistant Enterococcus faecalis NCTC 12201 by microdilution broth method", "assay_type": "functional", "settings": "not given", "units": {"MIC": "µg/mL"}, "values": [{"smiles": "COc1cc2c(cc1OCCCC(=O)Nc1cc(C(=O)Nc3ccc(-c4cc(C(=O)N5CCOCC5)n(C)c4)cc3)n(C)c1)N=C[C@@H]1CCCN1C2=O", "MIC": "≤ 0.125"}]}, {"test_system": "DNA", "experiment": "Stabilization of 5'-FAM-TAT-AGA-TAT-AGA-TAT-TTT-ATA-TCT-ATA-TCT-ATA-3'-TAMRA DNA (unknown origin) assessed as reduction in change in melting temperature at 1:1 to 5:1 ligand to DNA ratio measured after 3 hrs by FRET-based assay relative to control", "assay_type": "ADME, nucleic-acid assay", "settings": "not given", "values": [{"smiles": "COc1cc2c(cc1OCCCC(=O)Nc1cc(C(=O)Nc3ccc(-c4cc(C(=O)N5CCOCC5)n(C)c4)cc3)n(C)c1)N=C[C@@H]1CCCN1C2=O", "fold change (FC)": "3 to 4"}]}, {"test_system": "not listed separately", "experiment": "Selectivity ratio of cytotoxicity against human WI38 cells to MIC for Klebsiella pneumoniae M6", "assay_type": "toxicity, cell-based", "settings": "not given", "values": [{"smiles": "COc1cc2c(cc1OCCCC(=O)Nc1cc(C(=O)Nc3ccc(-c4cc(C(=O)N5CCOCC5)n(C)c4)cc3)n(C)c1)N=C[C@@H]1CCCN1C2=O", "selectivity ratio": 10}]}, {"test_system": "not listed separately", "experiment": "Selectivity ratio of cytotoxicity against human WI38 cells to MIC for Acinetobacter baumannii ATCC 17978", "assay_type": "toxicity, cell-based", "settings": "not given", "values": [{"smiles": "COc1cc2c(cc1OCCCC(=O)Nc1cc(C(=O)Nc3ccc(-c4cc(C(=O)N5CCOCC5)n(C)c4)cc3)n(C)c1)N=C[C@@H]1CCCN1C2=O", "selectivity ratio": 10}]}, {"test_system": "not listed separately", "experiment": "Selectivity ratio of cytotoxicity against human WI38 cells to MIC for vancomycin resistant Enterococcus faecium NCTC 12204", "assay_type": "toxicity, cell-based", "settings": "not given", "values": [{"smiles": "COc1cc2c(cc1OCCCC(=O)Nc1cc(C(=O)Nc3ccc(-c4cc(C(=O)N5CCOCC5)n(C)c4)cc3)n(C)c1)N=C[C@@H]1CCCN1C2=O", "selectivity ratio": 100}]}, {"test_system": "Pseudomonas aeruginosa", "experiment": "Antimicrobial activity against Pseudomonas aeruginosa PAO1 by microdilution broth method", "assay_type": "functional", "settings": "not given", "units": {"MIC": "µg/mL"}, "values": [{"smiles": "COc1cc2c(cc1OCCCC(=O)Nc1cc(C(=O)Nc3ccc(-c4cc(C(=O)N5CCOCC5)n(C)c4)cc3)n(C)c1)N=C[C@@H]1CCCN1C2=O", "MIC": "> 128"}]}, {"test_system": "Staphylococcus aureus", "experiment": "Antibacterial activity against methicillin resistant Staphylococcus aureus NCTC 13277 by microdilution broth method", "assay_type": "functional", "settings": "not given", "units": {"MIC": "µg/mL"}, "values": [{"smiles": "COc1cc2c(cc1OCCCC(=O)Nc1cc(C(=O)Nc3ccc(-c4cc(C(=O)N5CCOCC5)n(C)c4)cc3)n(C)c1)N=C[C@@H]1CCCN1C2=O", "MIC": "≤ 0.125"}]}, {"test_system": "not listed separately", "experiment": "Selectivity ratio of cytotoxicity against human WI38 cells to MIC for methicillin resistant Staphylococcus aureus NCTC 13616", "assay_type": "toxicity, cell-based", "settings": "not given", "values": [{"smiles": "COc1cc2c(cc1OCCCC(=O)Nc1cc(C(=O)Nc3ccc(-c4cc(C(=O)N5CCOCC5)n(C)c4)cc3)n(C)c1)N=C[C@@H]1CCCN1C2=O", "selectivity ratio": 100}]}, {"test_system": "Acinetobacter baumannii", "experiment": "Antimicrobial activity against multidrug-resistant Acinetobacter baumannii AYE by microdilution broth method", "assay_type": "functional", "settings": "not given", "units": {"MIC": "µg/mL"}, "values": [{"smiles": "COc1cc2c(cc1OCCCC(=O)Nc1cc(C(=O)Nc3ccc(-c4cc(C(=O)N5CCOCC5)n(C)c4)cc3)n(C)c1)N=C[C@@H]1CCCN1C2=O", "MIC": 2}]}, {"test_system": "Klebsiella pneumoniae", "experiment": "Antimicrobial activity against multidrug-resistant Klebsiella pneumoniae NCTC 13368 by microdilution broth method", "assay_type": "functional", "settings": "not given", "units": {"MIC": "µg/mL"}, "values": [{"smiles": "COc1cc2c(cc1OCCCC(=O)Nc1cc(C(=O)Nc3ccc(-c4cc(C(=O)N5CCOCC5)n(C)c4)cc3)n(C)c1)N=C[C@@H]1CCCN1C2=O", "MIC": 32}]}, {"test_system": "Pseudomonas aeruginosa", "experiment": "Antimicrobial activity against multidrug-resistant Pseudomonas aeruginosa NCTC 13437 by microdilution broth method", "assay_type": "functional", "settings": "not given", "units": {"MIC": "µg/mL"}, "values": [{"smiles": "COc1cc2c(cc1OCCCC(=O)Nc1cc(C(=O)Nc3ccc(-c4cc(C(=O)N5CCOCC5)n(C)c4)cc3)n(C)c1)N=C[C@@H]1CCCN1C2=O", "MIC": "> 128"}]}, {"test_system": "Staphylococcus aureus", "experiment": "Antibacterial activity against methicillin sensitive Staphylococcus aureus NCTC 6571 by microdilution broth method", "assay_type": "functional", "settings": "not given", "units": {"MIC": "µg/mL"}, "values": [{"smiles": "COc1cc2c(cc1OCCCC(=O)Nc1cc(C(=O)Nc3ccc(-c4cc(C(=O)N5CCOCC5)n(C)c4)cc3)n(C)c1)N=C[C@@H]1CCCN1C2=O", "MIC": "≤ 0.125"}]}, {"test_system": "not listed separately", "experiment": "Selectivity ratio of cytotoxicity against human WI38 cells to MIC for multidrug-resistant Klebsiella pneumoniae NCTC 13368", "assay_type": "toxicity, cell-based", "settings": "not given", "values": [{"smiles": "COc1cc2c(cc1OCCCC(=O)Nc1cc(C(=O)Nc3ccc(-c4cc(C(=O)N5CCOCC5)n(C)c4)cc3)n(C)c1)N=C[C@@H]1CCCN1C2=O", "selectivity ratio": 10}]}]}
